{"source": "patent US8633204B2", "about": "(Pfizer Inc., priority 2006, dated 2014)", "key": {"[1]": {"test_system": "PI3-K in BT20 cells (phosphorylation of AKT at serine 473)", "test": "PI3-Kα Cellular Assay (AKT Ser473 phosphorylation ELISA in BT20 cells)", "assay_type": "cell-based, human", "conditions": "Homo sapiens, BT-20, pAKT Ser473 ELISA, 1 hour incubation", "in_short": "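Cells seeded overnight in 0.5% FBS, then exposed 1 h at 37 °C to an 11-concentration 1:3 dilution series, in duplicate.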"}, "[2]": {"test_system": "SKOV3 tumor model", "test": "Mouse xenograft efficacy study, SKOV3", "assay_type": "in vivo", "conditions": "for Growth Inhibition (%): SKOV3 ovarian xenograft", "method": "(§1) The in vivo efficacy of 2-amino-8-(trans-4-hydroxycyclohexyl)-6-(6-methoxypyridin-3-yl)-4-methylpyrido[2,3-d]pyrimidin-7(8H)-one (Compound 152) disclosed in Example 53 was examined in s.c. xenograft model. Human tumor cell lines PC3 (PTEN deletion)), U87MG (PTEN deletion) and SKOV3 (PI3Kα […]) were chosen for in vivo efficacy studies due to their different genetic background and relatively high levels of phospho AKT S473 signal. Cells were implanted in the hind flank of athymic mice and tumors grew in size to 100-200 mm^3 before daily oral treatment with Compound 152 was initiated. […] For all models tested 1 mg/kg was an efficacious dose.\n(§2) Animal Care: Female and male athymic mice (6-8 weeks old) weighing ˜22 g were obtained from Charles River Laboratory. Animal were housed on a 12 h light/dark cycle in the Pfizer vivarium and all procedures are conducted in accordance with the Pfizer Institutional Animal Care and Use Committee (IACUC). Animals are provided free access to rodent chow and water ad libitum and maintained under clean room conditions. Prior to study start animals acclimate for at least 48 h.\n(§3) Cell lines: All cell lines were cultured at 37° C. in humidified 5% CO2 incubator. U87 MG glioblastoma tumor cell line was obtained from American Type Culture Collection (ATCC) and cultured with DMEM supplemented with 15% FBS and 2 mM glutamine. PC3 prostate cancer cell line were obtained from National Cancer Institute and cultured in RPMI media supplemented with 10% FBS and 2 mM glutamine. SKOV3 ovarian cancer cells were obtained from ATCC and passaged multiple times through mice, and cultured in McCoy's 5A media supplemented with 10% FBS and 2 mM glutamine. All cell lines were tested by University of Missouri Research Animal Diagnostic Laboratory for known species of murine viruses and mycoplasma contamination.\n(§4) Mouse Xenograft Models: U87MG (glioblastoma), PC3 (prostate cancer) and SKOV3 (ovarian cancer) cell lines in culture were harvested by trypsinisation. Briefly, 2.5−4×10^6 tumor cells were suspended in the medium used to culture each cell line without serum and implanted sub-cutaneously (s.c) into the hind flank region of mice on day 0. Daily treatment with Compound 152, formulated in 10% ethanol, 40% PEG and 50% sodium citrate buffer or vehicle alone commenced 10-14 d after implantation when average tumors were 100-200 mm^3 in size. Tumors were measured twice weekly and tumor volume was calculated as a product of (length×width^2)/2. Studies were typically terminated when the tumor in the vehicle treated animals reached a size of >1500 mm3 or when judged to adversely affect the well being of the animal. […] Where applicable, percent tumor regression for each group was calculated as 100×(tumor volumeinitial−tumor volumefinal)/(tumor volumeinitial). A cohort of 12 animals was used for each dose group for efficacy studies. A representative cohort of animals were sacrificed at the times indicated, tumors resected, and a blood sample taken from the cardiac left ventricle and immediately placed in a vial primed with heparin sulfate. Typically one half of the tumor was fixed in 10% neutral buffered formalin, paraffin embedded, and sectioned for immunohistochemistry. The other half was frozen in liquid nitrogen and later processed to generate cell lysates for target modulation studies."}, "[3]": {"test_system": "PC3 tumor model", "test": "Mouse xenograft efficacy study, PC3", "assay_type": "in vivo", "method": "as §1, §2, §3, §4"}, "[4]": {"conditions": "SKOV3 tumor model, daily oral treatment"}, "[5]": {"conditions": "PC3 tumor model, daily oral treatment"}}, "note": "Entries after “also recorded” stand apart in the source; their conditions may differ."}
{"molecule": "COc1ccc(-c2cc3c(C)nc(N)nc3n([C@H]3CC[C@H](O)CC3)c2=O)cn1", "note": "[Compound 152, 2-amino-8-(trans-4-hydroxycyclohexyl)-6-(6-methoxypyridin-3-yl)-4-methylpyrido[2,3-d]pyrimidin-7(8H)-one]", "values": [{"measurement": "IC50", "setting": "[1]", "value": 3.6, "unit": "nM"}, {"measurement": "Growth Inhibition (%)", "setting": "[2]; 0.5 mg/kg/day oral", "value": 46, "unit": "%"}, {"measurement": "Growth Inhibition (%)", "setting": "[2]; 1 mg/kg/day oral", "value": 66, "unit": "%"}, {"measurement": "Growth Inhibition (%)", "setting": "[2]; 2 mg/kg/day oral", "value": 82, "unit": "%"}, {"measurement": "anti-tumor efficacy", "setting": "[2]; [4]", "value": "dose-dependent anti-tumor efficacy; also recorded: growth inhibition"}, {"measurement": "efficacious dose", "setting": "[2]; [4]", "value": 1, "unit": "mg/kg"}, {"measurement": "Growth Inhibition (%)", "setting": "[3]; PC3 prostate xenograft, 0.25 mg/kg/day oral", "value": 45, "unit": "%"}, {"measurement": "Growth Inhibition (%)", "setting": "[3]; PC3 prostate xenograft, 0.5 mg/kg/day oral", "value": 62, "unit": "%"}, {"measurement": "Growth Inhibition (%)", "setting": "[3]; PC3 prostate xenograft, 1 mg/kg/day oral", "value": 89, "unit": "%"}, {"measurement": "Regression (%)", "setting": "[3]; PC3 prostate xenograft, 2 mg/kg/day oral", "value": 19, "unit": "%"}, {"measurement": "anti-tumor efficacy", "setting": "[3]; [5]", "value": "dose-dependent anti-tumor efficacy; also recorded: regression"}, {"measurement": "efficacious dose", "setting": "[3]; [5]", "value": 1, "unit": "mg/kg"}]}
